Test results published in US4508663A, “Process for preparing thiosulfenamide derivatives of N-phosphonomethylglycinonitriles” (Monsanto Company, priority 1983, dated 1985).

What was measured:
Experiment in all cases: post-emergence herbicidal activity, greenhouse
Type in all cases: in vivo
Details in all cases: Table I
Downy Brome = test system: Downy Brome
Excerpt: (§1) A good grade of top soil is placed in aluminum pans having holes in the bottom and compacted to a depth of 0.95 to 1.27 cm. from the top of the pan. A predetermined number of seeds of each of several dicotyledonous and monocotyledonous annual plant species and/or vegetative propagules for the perennial plant species are placed on the soil and pressed into the soil surface. The seeds and/or vegetative propagules are covered with soil and leveled. The pans are then placed on a sand bench in the greenhouse and watered from below as needed. After the plants reach the desired age (two to three weeks), each pan except for the control pans is removed individually to a spraying chamber and sprayed by means of an atomizer operating at a positive air pressure of approximately 1.46 kg/cm^2 absolute. The atomizer contains 6 ml. of a solution or suspension of the chemical. In that 6 ml., is an amount of a cyclohexanone emulsifying agent mixture to give a spray solution or suspension which contains about 0.4% by weight of the emulsifier. The spray solution or suspension contains a sufficient amount of the candidate chemical in order to give application rates corresponding to those set forth in the tables. The spray solution is prepared by taking an aliquot of a 1.0% by weight stock solution or suspension of the candidate chemical in an organic solvent such as acetone or tetrahydrofuran or in water. The emulsifying agent employed is a mixture comprising 35 weight percent butylamine dodecylbenzene sulfonate and 65 weight percent of a tall oil ethylene oxide condensate having about 11 moles of ethylene oxide per mole of tall oil. The pans are returned to the greenhouse and watered as before and the injury to the plants as compared to the control is observed at approximately two and four weeks as indicated in the tables under WAT and the results recorded. In some instances, the two-week observations are omitted.
(§2) The post-emergence herbicidal activity index used in Table I is as follows: […]

Johnsongrass = test system: Johnsongrass
Excerpt: as §1, §2

Smartweed = test system: Smartweed
Excerpt: as §1, §2

Cocklebur = test system: Cocklebur
Excerpt: as §1, §2

Lambsquarters = test system: Lambsquarters
Excerpt: as §1, §2

Barnyardgrass = test system: Barnyardgrass
Excerpt: as §1, §2

Yellow Nutsedge = test system: Yellow Nutsedge
Excerpt: as §1, §2

Quackgrass = test system: Quackgrass
Excerpt: as §1, §2

Velvetleaf = test system: Velvetleaf
Excerpt: as §1, §2

Morningglory = test system: Morningglory
Excerpt: as §1, §2

SMILES | post-emergence herbicidal activity index (Downy Brome; 4 WAT, 11.2 kg/h) | post-emergence herbicidal activity index (Johnsongrass; 4 WAT, 11.2 kg/h) | post-emergence herbicidal activity index (Smartweed; 4 WAT, 11.2 kg/h) | post-emergence herbicidal activity index (Cocklebur; 4 WAT, 11.2 kg/h) | post-emergence herbicidal activity index (Lambsquarters; 4 WAT, 11.2 kg/h) | post-emergence herbicidal activity index (Barnyardgrass; 4 WAT, 11.2 kg/h) | post-emergence herbicidal activity index (Yellow Nutsedge; 4 WAT, 11.2 kg/h) | post-emergence herbicidal activity index (Quackgrass; 4 WAT, 11.2 kg/h) | post-emergence herbicidal activity index (Velvetleaf; 4 WAT, 11.2 kg/h) | post-emergence herbicidal activity index (Morningglory; 4 WAT, 11.2 kg/h) | also measured
N#CCN(CP(=O)(Oc1ccccc1)Oc1ccccc1)SSC1CCCCC1 [X, Phosphonic acid, [[(cyanomethyl)(cyclohexyldithio)amino]methyl]-, diphenyl ester] | 1 (25-49% control) | 1 (25-49% control) | 0 (0-24% control) | 2 (50-74% control) | 3 (75-99% control) | 1 (25-49% control) | 0 (0-24% control) | 0 (0-24% control) | 1 (25-49% control) | 1 (25-49% control) | post-emergence herbicidal activity index (Downy Brome; 2 WAT, 5.6 kg/h): 0 (0-24% control); post-emergence herbicidal activity index (Johnsongrass; 2 WAT, 5.6 kg/h): 0 (0-24% control); post-emergence herbicidal activity index (Smartweed; 2 WAT, 5.6 kg/h): 0 (0-24% control); post-emergence herbicidal activity index (Cocklebur; 2 WAT, 5.6 kg/h): 0 (0-24% control); post-emergence herbicidal activity index (Lambsquarters; 2 WAT, 5.6 kg/h): 3 (75-99% control); post-emergence herbicidal activity index (Barnyardgrass; 2 WAT, 5.6 kg/h): 0 (0-24% control); post-emergence herbicidal activity index (Yellow Nutsedge; 2 WAT, 5.6 kg/h): 0 (0-24% control); post-emergence herbicidal activity index (Quackgrass; 2 WAT, 5.6 kg/h): 0 (0-24% control); post-emergence herbicidal activity index (Velvetleaf; 2 WAT, 5.6 kg/h): 1 (25-49% control); post-emergence herbicidal activity index (Morningglory; 2 WAT, 5.6 kg/h): 0 (0-24% control)
N#CCN(CP(=O)(Oc1ccccc1)Oc1ccccc1)SSCc1cccc(C(F)(F)F)c1 [VIII, Phosphonic acid, [[(cyanomethyl)[[[3-(trifluoromethyl)phenyl]methyl]dithio]amino]methyl]-, diphenyl ester] | 2 (50-74% control) | 3 (75-99% control) | 0 (0-24% control) | 2 (50-74% control) | 4 (100% control) | 2 (50-74% control) | 2 (50-74% control) | 0 (0-24% control) | 1 (25-49% control) | 1 (25-49% control) | post-emergence herbicidal activity index (Downy Brome; 4 WAT, 5.6 kg/h): 1 (25-49% control); post-emergence herbicidal activity index (Johnsongrass; 4 WAT, 5.6 kg/h): 3 (75-99% control); post-emergence herbicidal activity index (Smartweed; 4 WAT, 5.6 kg/h): 0 (0-24% control); post-emergence herbicidal activity index (Cocklebur; 4 WAT, 5.6 kg/h): 1 (25-49% control); post-emergence herbicidal activity index (Lambsquarters; 4 WAT, 5.6 kg/h): 4 (100% control); post-emergence herbicidal activity index (Barnyardgrass; 4 WAT, 5.6 kg/h): 2 (50-74% control); post-emergence herbicidal activity index (Yellow Nutsedge; 4 WAT, 5.6 kg/h): 2 (50-74% control); post-emergence herbicidal activity index (Velvetleaf; 4 WAT, 5.6 kg/h): 1 (25-49% control); post-emergence herbicidal activity index (Morningglory; 4 WAT, 5.6 kg/h): 1 (25-49% control)
